The record followed here is the NIST ThermoML archive (doi:10.1016/j.fluid.2014.11.020).

± gives the expanded uncertainty stated by the source.

This data set is described as follows: activity coefficient (dimensionless); of the first substance listed, at infinite dilution; xn = mol fraction of the nth substance listed. The conditions noted are these: Liquid, Chromatography, x1 = 0.

As for `CC(C)CO` [2-methyl-1-propanol] + CCCOC[n+]1ccc(N(C)C)cc1.O=S(=O)([N-]S(=O)(=O)C(F)(F)F)C(F)(F)F, the activity coefficient was 2.03 ± 0.14 (323.15 K), 1.92 ± 0.13 (333.15 K) and 1.73 ± 0.12 (343.15 K).
Taken in the same sequence, the figures for `CC(C)CO` [2-methyl-1-propanol] + CCCOC[n+]1ccn(C)c1.F[B-](F)(F)F were 4.35 ± 0.3, 3.95 ± 0.27 and 3.56 ± 0.24.
Taken in the same sequence, the figures for `CC(C)CO` [2-methyl-1-propanol] + CCCOC[n+]1ccn(C)c1.N#C[N-]C#N were 1.29 ± 0.08, 1.25 ± 0.08 and 1.21 ± 0.08.
Taken in the same sequence, the figures for `CC(C)CO` [2-methyl-1-propanol] + CCCOC[n+]1ccn(C)c1.O=S(=O)([N-]S(=O)(=O)C(F)(F)F)C(F)(F)F were 2.18 ± 0.15, 1.93 ± 0.13 and 1.76 ± 0.12.
For `CC(C)CO` [2-methyl-1-propanol] + CCCOC[n+]1ccn(Cc2ccccc2)c1.F[B-](F)(F)F, the activity coefficient was 2.86 ± 0.19 (323.15 K), 2.53 ± 0.17 (333.15 K) and 2.34 ± 0.16 (343.15 K).
Take `CC(C)CO` [2-methyl-1-propanol] + CCCOC[n+]1ccn(Cc2ccccc2)c1.N#C[N-]C#N: the activity coefficient came to 0.9 ± 0.06 (323.15 K) and 0.86 ± 0.06 (333.15 K).
For `CC(C)CO` [2-methyl-1-propanol] + CN(C)c1cc[n+](COCCCOC[n+]2ccc(N(C)C)cc2)cc1.O=S(=O)([N-]S(=O)(=O)C(F)(F)F)C(F)(F)F.O=S(=O)([N-]S(=O)(=O)C(F)(F)F)C(F)(F)F, the activity coefficient (323.15 K) was 1.85 ± 0.12, the activity coefficient (333.15 K) worked out at 1.66 ± 0.11 and the activity coefficient (343.15 K) was found to be 1.5 ± 0.1.
Consider `CC(C)CO` [2-methyl-1-propanol] + Cn1cc[n+](COCCCOC[n+]2ccn(C)c2)c1.N#C[N-]C#N.N#C[N-]C#N, for which the activity coefficient is, setting by setting: (323.15 K) 1.94 ± 0.13; (333.15 K) 1.81 ± 0.12; (343.15 K) 1.73 ± 0.12.
As to `CC(C)CO` [2-methyl-1-propanol] + Cn1cc[n+](COCCCOC[n+]2ccn(C)c2)c1.O=S(=O)([N-]S(=O)(=O)C(F)(F)F)C(F)(F)F.O=S(=O)([N-]S(=O)(=O)C(F)(F)F)C(F)(F)F, the activity coefficient amounted to 1.87 ± 0.13 (323.15 K), 1.71 ± 0.11 (333.15 K) and 1.5 ± 0.1 (343.15 K).
For `CC(C)CO` [2-methyl-1-propanol] + N#C[N-]C#N.N#C[N-]C#N.c1ccc(Cn2cc[n+](COCCCOC[n+]3ccn(Cc4ccccc4)c3)c2)cc1, the activity coefficient (323.15 K) was found to be 1.79 ± 0.12, the activity coefficient (333.15 K) is 1.67 ± 0.11 and the activity coefficient (343.15 K) worked out at 1.61 ± 0.11.
On the same counts, the results for `CCC(C)CC` [3-methylpentane] + CCCCCCCCn1cc[n+](COCCC)c1C.N#C[N-]C#N are 6.65 ± 0.45, 5.7 ± 0.39 and 6.25 ± 0.43.
For the compound `CCC(C)CC` [3-methylpentane] + CCCCCCCCn1cc[n+](COCCC)c1C.O=S(=O)([N-]S(=O)(=O)C(F)(F)F)C(F)(F)F, the activity coefficient came to 3.57 ± 0.24 (323.15 K), 3.42 ± 0.23 (333.15 K) and 3.05 ± 0.21 (343.15 K).
Take `CCC(C)CC` [3-methylpentane] + CCCCCCCCn1cc[n+](COCCCOC[n+]2ccn(CCCCCCCC)c2C)c1C.N#C[N-]C#N.N#C[N-]C#N: the activity coefficient (323.15 K) amounted to 3.48 ± 0.24.
In the case of `CCC(C)CC` [3-methylpentane] + CCCCCCCCn1cc[n+](COCCCOC[n+]2ccn(CCCCCCCC)c2C)c1C.O=S(=O)([N-]S(=O)(=O)C(F)(F)F)C(F)(F)F.O=S(=O)([N-]S(=O)(=O)C(F)(F)F)C(F)(F)F, the activity coefficient (323.15 K) was determined as 3.59 ± 0.24, the activity coefficient (333.15 K) was found to be 3.36 ± 0.23 and the activity coefficient (343.15 K) stood at 3.13 ± 0.21.
On the same counts, the results for `CCC(C)CC` [3-methylpentane] + CCCOC[n+]1ccc(N(C)C)cc1.O=S(=O)([N-]S(=O)(=O)C(F)(F)F)C(F)(F)F are 9.61 ± 0.66, 9.48 ± 0.65 and 9.24 ± 0.63.
As for `CCC(C)CC` [3-methylpentane] + CCCOC[n+]1ccn(C)c1.O=S(=O)([N-]S(=O)(=O)C(F)(F)F)C(F)(F)F, the activity coefficient is 14.4 ± 0.98 (323.15 K) and 10.8 ± 0.74 (333.15 K).
Regarding `CCC(C)CC` [3-methylpentane] + CCCOC[n+]1ccn(Cc2ccccc2)c1.N#C[N-]C#N, where the note is “323.15 K”, the activity coefficient came to 28.5 ± 1.9.
Turning to `CCC(C)CC` [3-methylpentane] + CCCOC[n+]1ccn(Cc2ccccc2)c1.O=S(=O)([N-]S(=O)(=O)C(F)(F)F)C(F)(F)F, the activity coefficient (323.15 K) came to 8.01 ± 0.55, the activity coefficient (333.15 K) stood at 6.59 ± 0.45 and the activity coefficient (343.15 K) is 5.91 ± 0.4.
Regarding `CCC(C)CC` [3-methylpentane] + Cn1cc[n+](COCCCOC[n+]2ccn(C)c2)c1.O=S(=O)([N-]S(=O)(=O)C(F)(F)F)C(F)(F)F.O=S(=O)([N-]S(=O)(=O)C(F)(F)F)C(F)(F)F, the activity coefficient stood at 39.2 ± 2.7 (323.15 K) and 14.4 ± 1 (333.15 K).
Turning to `CC#N` [acetonitrile] + CCCCCCCCn1cc[n+](COCCC)c1C.N#C[N-]C#N, the activity coefficient was found to be 0.72 ± 0.05 (323.15 K), 0.7 ± 0.05 (333.15 K) and 0.69 ± 0.05 (343.15 K).
Take `CC#N` [acetonitrile] + CCCCCCCCn1cc[n+](COCCC)c1C.O=S(=O)([N-]S(=O)(=O)C(F)(F)F)C(F)(F)F: the activity coefficient is, setting by setting: (323.15 K) 0.48 ± 0.04; (333.15 K) 0.46 ± 0.04; (343.15 K) 0.47 ± 0.04.
On to `CC#N` [acetonitrile] + CCCCCCCCn1cc[n+](COCCCOC[n+]2ccn(CCCCCCCC)c2C)c1C.N#C[N-]C#N.N#C[N-]C#N, for which the activity coefficient runs as follows: (323.15 K) 0.46 ± 0.04; (333.15 K) 0.46 ± 0.04; (343.15 K) 0.45 ± 0.04.
`CC#N` [acetonitrile] + CCCCCCCCn1cc[n+](COCCCOC[n+]2ccn(CCCCCCCC)c2C)c1C.O=S(=O)([N-]S(=O)(=O)C(F)(F)F)C(F)(F)F.O=S(=O)([N-]S(=O)(=O)C(F)(F)F)C(F)(F)F: the activity coefficient by setting is: (323.15 K) 0.26 ± 0.03; (333.15 K) 0.25 ± 0.03; (343.15 K) 0.25 ± 0.03.
Consider `CC#N` [acetonitrile] + CCCOC[n+]1ccc(N(C)C)cc1.O=S(=O)([N-]S(=O)(=O)C(F)(F)F)C(F)(F)F, for which the activity coefficient was 0.51 ± 0.04 (323.15 K), 0.52 ± 0.04 (333.15 K) and 0.52 ± 0.04 (343.15 K).
Take `CC#N` [acetonitrile] + CCCOC[n+]1ccn(C)c1.F[B-](F)(F)F: the activity coefficient by setting is: (323.15 K) 0.73 ± 0.05; (333.15 K) 0.74 ± 0.05; (343.15 K) 0.75 ± 0.05.
On the same counts, the results for `CC#N` [acetonitrile] + CCCOC[n+]1ccn(C)c1.N#C[N-]C#N are 0.77 ± 0.05, 0.78 ± 0.05 and 1.09 ± 0.07.
Taken in the same sequence, the figures for `CC#N` [acetonitrile] + CCCOC[n+]1ccn(C)c1.O=S(=O)([N-]S(=O)(=O)C(F)(F)F)C(F)(F)F were 0.46 ± 0.04, 0.46 ± 0.04 and 0.46 ± 0.04.
On the same counts, the results for `CC#N` [acetonitrile] + CCCOC[n+]1ccn(Cc2ccccc2)c1.F[B-](F)(F)F are 0.63 ± 0.04, 0.63 ± 0.04 and 0.63 ± 0.04.
